We go through eight compounds from US20260201008A1, “SECRETIN-DERIVED GLP1R SELECTIVE AGONISTS” (GUBRA A/S, priority 2023, published 2026).

One assay deals with GLP1R (Homo sapiens, UniProt P43220). Briefly: hGLP1R potency, cAMP accumulation in CHO-K1 cells stably overexpressing hGLP1R. It counts as cell-based. The following applies: for Selectivity: SCTR EC50/GLP1R EC50 ratio; for EC50: read-out: pEC50 hGLPR1 (converted). Also noted: host or cells: CHO-K1. An excerpt:
(§1) Crude library peptides are screened in 10-fold serial dilutions of 5 concentrations, n=1 time. Tip change is done for the first two serial dilutions. Compound starting concentration (top) will be adjusted throughout the study if needed.
(§2) Purified peptides are screened in 3-fold serial dilutions of 11 concentrations, n=2 times. Tip change is done for all serial dilutions. Compound starting concentration (top) will be adjusted throughout the study. If the top concentration is adjusted or a 5-fold difference in calculated EC50 values is observed, n is increased by 1. EC50 values were calculated by nonlinear regression using sigmoid concentration-response with variable slope.
(§3) A CHO-K1 cell line stably overexpressing the hGLP1R was obtained from Euroscreen (FAST-0145L), expanded, aliquoted and frozen. An aliquot was thawed and plated in DPBS with 0.05% casein and 0.5 mM IBMX as 2000 cells/well in a 384-well format. The cells were then immediately stimulated for 30 min at room temperature with graded doses of test compound using human GLP-1(7-36) (synthesized at Gubra) as a positive control. cAMP accumulation was measured using a Cisbio assay for Gs coupled receptors (cat. no. 62AM4PEC), where the assay reagents were added as per the manufacturer's instructions and time-resolved fluorescence energy transfer recorded after one hour on a CLARIOstar (BMG Labtech) plate reader.
(In general: cAMP levels reflect the balance of adenylyl cyclase and phosphodiesterase activity.)

In a further assay the target is SCTR (Homo sapiens, UniProt P47872). Briefly: hSCTR potency, cAMP accumulation in CHO-K1 cells stably overexpressing hSCTR. The following applies: Table 4, position X12 variants of GUB06-046; read-out: pEC50 hSCTR (converted). The assay is classed as cell-based. Also noted: alternatively Euroscreen ES-712-AF; FAST-0161L; host or cells: CHO-K1.
From the text: as §1, §2
as §3, with “Frozen division arrested CHO-K1 cells stably overexpressing the hSCTR were obtained from PerkinElmer (ES-712-AF). Alternatively, a CHO-K1” for “A CHO-K1”, “the hSCTR” for “the hGLP1R”, “Euroscreen (FAST-0161L),” for “Euroscreen (FAST-0145L),”, “human secretin” for “human GLP-1(7-36)”

Setting [1] is: Table 3, position X^10 variants of GUB06-046.
[2] abbreviates: Table 4, position X12 variants of GUB06-046.

Square brackets hold non-standard residues; d marks the D form. Peptide text beside a SMILES is read from it. Aib = CC(C)(N)C(=O)O

Chain of GLP1R (P43220 24-463): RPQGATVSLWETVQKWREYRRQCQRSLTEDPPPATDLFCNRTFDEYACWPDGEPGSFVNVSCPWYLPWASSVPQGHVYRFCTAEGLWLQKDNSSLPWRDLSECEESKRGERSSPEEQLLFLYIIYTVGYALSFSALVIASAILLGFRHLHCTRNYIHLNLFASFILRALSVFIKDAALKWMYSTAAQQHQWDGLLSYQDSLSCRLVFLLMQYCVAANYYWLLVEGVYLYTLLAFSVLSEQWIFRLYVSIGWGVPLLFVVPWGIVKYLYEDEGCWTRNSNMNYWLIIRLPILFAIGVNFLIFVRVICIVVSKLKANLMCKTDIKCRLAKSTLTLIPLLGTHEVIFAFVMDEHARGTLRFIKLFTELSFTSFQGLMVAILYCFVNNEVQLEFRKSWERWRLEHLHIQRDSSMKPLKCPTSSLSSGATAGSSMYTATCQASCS
Chain of SCTR (P47872 23-440): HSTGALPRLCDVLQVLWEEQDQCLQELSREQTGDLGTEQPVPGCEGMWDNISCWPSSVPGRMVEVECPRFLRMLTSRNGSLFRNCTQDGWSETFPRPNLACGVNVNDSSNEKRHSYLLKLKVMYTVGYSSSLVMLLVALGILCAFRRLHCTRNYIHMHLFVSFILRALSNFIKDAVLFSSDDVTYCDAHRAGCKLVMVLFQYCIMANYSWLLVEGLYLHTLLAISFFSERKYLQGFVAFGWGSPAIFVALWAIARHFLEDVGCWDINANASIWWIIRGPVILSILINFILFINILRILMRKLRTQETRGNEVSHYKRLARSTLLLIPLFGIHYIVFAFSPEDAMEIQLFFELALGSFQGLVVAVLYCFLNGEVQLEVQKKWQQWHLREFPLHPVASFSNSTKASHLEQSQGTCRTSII

Turning to `CC[C@H](C)[C@H](NC(=O)[C@H](Cc1ccccc1)NC(=O)[C@H](CCCNC(=N)N)NC(=O)[C@H](CCC(N)=O)NC(=O)[C@H](CC(C)C)NC(=O)[C@H](C)NC(=O)[C@H](C)NC(=O)CNC(=O)[C@H](CCC(=O)O)NC(=O)[C@H](CC(C)C)NC(=O)[C@H](CC(C)C)NC(=O)[C@H](CCCNC(=N)N)NC(=O)[C@H](CO)NC(=O)[C@H](Cc1c[nH]c2ccccc12)NC(=O)[C@H](CC(=O)O)NC(=O)[C@H](CO)NC(=O)[C@@H](NC(=O)[C@H](Cc1ccccc1)NC(=O)[C@@H](NC(=O)CNC(=O)[C@H](CCC(=O)O)NC(=O)C(C)(C)NC(=O)[C@@H](N)Cc1c[nH]cn1)[C@@H](C)O)[C@@H](C)O)C(=O)N[C@@H](CCC(N)=O)C(=O)N[C@@H](Cc1c[nH]c2ccccc12)C(=O)N[C@@H](CC(C)C)C(=O)N[C@H](C(N)=O)C(C)C` [compound 219] (H-H[Aib]EGTFTSDWSRLLEGAALQRFIQWLV-NH2), the Selectivity on GLP1R (setting [1]) is 478.

Regarding `CC[C@H](C)[C@H](NC(=O)[C@H](Cc1ccccc1)NC(=O)[C@H](CCCNC(=N)N)NC(=O)[C@H](CCC(N)=O)NC(=O)[C@H](CC(C)C)NC(=O)[C@H](C)NC(=O)[C@H](C)NC(=O)CNC(=O)[C@H](CCC(=O)O)NC(=O)[C@H](CC(C)C)NC(=O)[C@H](CC(C)C)NC(=O)[C@@H](NC(=O)[C@H](CO)NC(=O)[C@H](CC(C)C)NC(=O)[C@H](CC(=O)O)NC(=O)[C@H](CO)NC(=O)[C@@H](NC(=O)[C@H](Cc1ccccc1)NC(=O)[C@@H](NC(=O)CNC(=O)[C@H](CCC(=O)O)NC(=O)C(C)(C)NC(=O)[C@@H](N)Cc1c[nH]cn1)[C@@H](C)O)[C@@H](C)O)C(C)C)C(=O)N[C@@H](CCC(N)=O)C(=O)N[C@@H](Cc1c[nH]c2ccccc12)C(=O)N[C@@H](CC(C)C)C(=O)N[C@H](C(N)=O)C(C)C` [compound 227] (H-H[Aib]EGTFTSDLSVLLEGAALQRFIQWLV-NH2), on SCTR, the EC50 was 1.26 nM. Also, at GLP1R (setting [2]), the Selectivity amounted to 43 and the EC50 is 0.0316 nM.

Turning to `CC[C@H](C)[C@H](NC(=O)[C@H](Cc1ccccc1)NC(=O)[C@H](CCCNC(=N)N)NC(=O)[C@H](CCC(N)=O)NC(=O)[C@H](CC(C)C)NC(=O)[C@H](C)NC(=O)[C@H](C)NC(=O)CNC(=O)[C@H](CCC(=O)O)NC(=O)[C@H](CC(C)C)NC(=O)[C@H](CC(C)C)NC(=O)[C@H](CCCNC(=N)N)NC(=O)[C@H](CO)NC(=O)[C@@H](NC(=O)[C@H](CC(=O)O)NC(=O)[C@H](CO)NC(=O)[C@@H](NC(=O)[C@H](Cc1ccccc1)NC(=O)[C@@H](NC(=O)CNC(=O)[C@H](CCC(=O)O)NC(=O)C(C)(C)NC(=O)[C@@H](N)Cc1c[nH]cn1)[C@@H](C)O)[C@@H](C)O)C(C)C)C(=O)N[C@@H](CCC(N)=O)C(=O)N[C@@H](Cc1c[nH]c2ccccc12)C(=O)N[C@@H](CC(C)C)C(=O)N[C@H](C(N)=O)C(C)C` [compound 220] (H-H[Aib]EGTFTSDVSRLLEGAALQRFIQWLV-NH2), the Selectivity on GLP1R (setting [1]) was 891.

As to `CC[C@H](C)[C@H](NC(=O)[C@H](Cc1ccccc1)NC(=O)[C@H](CCCNC(=N)N)NC(=O)[C@H](CCC(N)=O)NC(=O)[C@H](CC(C)C)NC(=O)[C@H](C)NC(=O)[C@H](C)NC(=O)CNC(=O)[C@H](CCC(=O)O)NC(=O)[C@H](CC(C)C)NC(=O)[C@H](CC(C)C)NC(=O)[C@H](Cc1ccc(O)cc1)NC(=O)[C@H](CO)NC(=O)[C@H](CC(C)C)NC(=O)[C@H](CC(=O)O)NC(=O)[C@H](CO)NC(=O)[C@@H](NC(=O)[C@H](Cc1ccccc1)NC(=O)[C@@H](NC(=O)CNC(=O)[C@H](CCC(=O)O)NC(=O)C(C)(C)NC(=O)[C@@H](N)Cc1c[nH]cn1)[C@@H](C)O)[C@@H](C)O)C(=O)N[C@@H](CCC(N)=O)C(=O)N[C@@H](Cc1c[nH]c2ccccc12)C(=O)N[C@@H](CC(C)C)C(=O)N[C@H](C(N)=O)C(C)C` [compound 229] (H-H[Aib]EGTFTSDLSYLLEGAALQRFIQWLV-NH2), the EC50 on SCTR was 10 nM. Also, on GLP1R (setting [2]), the Selectivity is 699 and the EC50 was 0.0158 nM.

As for `CC[C@H](C)[C@H](NC(=O)[C@H](Cc1ccccc1)NC(=O)[C@H](CCCNC(=N)N)NC(=O)[C@H](CCC(N)=O)NC(=O)[C@H](CC(C)C)NC(=O)[C@H](C)NC(=O)[C@H](C)NC(=O)CNC(=O)[C@H](CCC(=O)O)NC(=O)[C@H](CC(C)C)NC(=O)[C@H](CC(C)C)NC(=O)[C@H](Cc1ccccc1)NC(=O)[C@H](CO)NC(=O)[C@H](CC(C)C)NC(=O)[C@H](CC(=O)O)NC(=O)[C@H](CO)NC(=O)[C@@H](NC(=O)[C@H](Cc1ccccc1)NC(=O)[C@@H](NC(=O)CNC(=O)[C@H](CCC(=O)O)NC(=O)C(C)(C)NC(=O)[C@@H](N)Cc1c[nH]cn1)[C@@H](C)O)[C@@H](C)O)C(=O)N[C@@H](CCC(N)=O)C(=O)N[C@@H](Cc1c[nH]c2ccccc12)C(=O)N[C@@H](CC(C)C)C(=O)N[C@H](C(N)=O)C(C)C` [compound 225] (H-H[Aib]EGTFTSDLSFLLEGAALQRFIQWLV-NH2), the EC50 on SCTR was 7.94 nM. Also, at GLP1R (setting [2]), the Selectivity is 328 and the EC50 is 0.0251 nM.

For `CC[C@H](C)[C@H](NC(=O)[C@H](Cc1ccccc1)NC(=O)[C@H](CCCNC(=N)N)NC(=O)[C@H](CCC(N)=O)NC(=O)[C@H](CC(C)C)NC(=O)[C@H](C)NC(=O)[C@H](C)NC(=O)CNC(=O)[C@H](CCC(=O)O)NC(=O)[C@H](CC(C)C)NC(=O)[C@H](CC(C)C)NC(=O)[C@H](CCCNC(=N)N)NC(=O)[C@H](CO)NC(=O)[C@H](Cc1ccc(O)cc1)NC(=O)[C@H](CC(=O)O)NC(=O)[C@H](CO)NC(=O)[C@@H](NC(=O)[C@H](Cc1ccccc1)NC(=O)[C@@H](NC(=O)CNC(=O)[C@H](CCC(=O)O)NC(=O)C(C)(C)NC(=O)[C@@H](N)Cc1c[nH]cn1)[C@@H](C)O)[C@@H](C)O)C(=O)N[C@@H](CCC(N)=O)C(=O)N[C@@H](Cc1c[nH]c2ccccc12)C(=O)N[C@@H](CC(C)C)C(=O)N[C@H](C(N)=O)C(C)C` [compound 217] (H-H[Aib]EGTFTSDYSRLLEGAALQRFIQWLV-NH2), the Selectivity on GLP1R (setting [1]) was 114.

For `CC[C@H](C)[C@H](NC(=O)[C@H](Cc1ccccc1)NC(=O)[C@H](CCCNC(=N)N)NC(=O)[C@H](CCC(N)=O)NC(=O)[C@H](CC(C)C)NC(=O)[C@H](C)NC(=O)[C@H](C)NC(=O)CNC(=O)[C@H](CCC(=O)O)NC(=O)[C@H](CC(C)C)NC(=O)[C@H](CC(C)C)NC(=O)[C@H](CCCNC(=N)N)NC(=O)[C@H](CO)NC(=O)[C@@H](NC(=O)[C@H](CC(=O)O)NC(=O)[C@H](CO)NC(=O)[C@@H](NC(=O)[C@H](Cc1ccccc1)NC(=O)[C@@H](NC(=O)CNC(=O)[C@H](CCC(=O)O)NC(=O)C(C)(C)NC(=O)[C@@H](N)Cc1c[nH]cn1)[C@@H](C)O)[C@@H](C)O)[C@@H](C)CC)C(=O)N[C@@H](CCC(N)=O)C(=O)N[C@@H](Cc1c[nH]c2ccccc12)C(=O)N[C@@H](CC(C)C)C(=O)N[C@H](C(N)=O)C(C)C` [compound 218] (H-H[Aib]EGTFTSDISRLLEGAALQRFIQWLV-NH2), at GLP1R (setting [1]), the Selectivity turned out to be 459.

On to `CC[C@H](C)[C@H](NC(=O)[C@H](Cc1ccccc1)NC(=O)[C@H](CCCNC(=N)N)NC(=O)[C@H](CCC(N)=O)NC(=O)[C@H](CC(C)C)NC(=O)[C@H](C)NC(=O)[C@H](C)NC(=O)CNC(=O)[C@H](CCC(=O)O)NC(=O)[C@H](CC(C)C)NC(=O)[C@H](CC(C)C)NC(=O)[C@H](CCCNC(=N)N)NC(=O)[C@H](CO)NC(=O)[C@@H]1CCCN1C(=O)[C@H](CC(=O)O)NC(=O)[C@H](CO)NC(=O)[C@@H](NC(=O)[C@H](Cc1ccccc1)NC(=O)[C@@H](NC(=O)CNC(=O)[C@H](CCC(=O)O)NC(=O)C(C)(C)NC(=O)[C@@H](N)Cc1c[nH]cn1)[C@@H](C)O)[C@@H](C)O)C(=O)N[C@@H](CCC(N)=O)C(=O)N[C@@H](Cc1c[nH]c2ccccc12)C(=O)N[C@@H](CC(C)C)C(=O)N[C@H](C(N)=O)C(C)C` [compound 221] (H-H[Aib]EGTFTSDPSRLLEGAALQRFIQWLV-NH2), for which the Selectivity at GLP1R (setting [1]) was determined as 2086.
